Where a name gives a salt, the structure may show the parent alone. Read-outs that look alike come from different tables or passages of the source. Bounds are passed on as bounds.

Consider ten molecules from paper PMC11269945, “HTRF-based assay for detection of mono-ADP-ribosyl hydrolyzing macrodomains and inhibitor screening” (iScience, 2024).

The target in assay [1] is HCoV-229e macrodomain (Human coronavirus 229E, UniProt P0C6X1). The experiment in a line: DeMAR HTRF deMARylation assay, wash protocol. The assay is classed as biochemical.
In assay [2] the target is T1, MacroD1 (Homo sapiens, UniProt Q9BQ69).
T1 sequence (Q9BQ69 90-325): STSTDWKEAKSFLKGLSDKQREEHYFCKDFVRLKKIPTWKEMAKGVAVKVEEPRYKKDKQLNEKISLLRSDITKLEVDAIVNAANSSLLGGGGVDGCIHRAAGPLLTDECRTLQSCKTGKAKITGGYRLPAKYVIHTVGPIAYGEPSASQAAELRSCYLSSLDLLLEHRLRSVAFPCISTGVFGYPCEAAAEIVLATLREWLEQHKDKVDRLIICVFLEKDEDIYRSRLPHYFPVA
The experiment in a line: biochemical.

Assay [3] has as its target T2, PARP14 Mac2/3 (Homo sapiens, UniProt Q460N5).
T2 sequence (Q460N5 994-1393): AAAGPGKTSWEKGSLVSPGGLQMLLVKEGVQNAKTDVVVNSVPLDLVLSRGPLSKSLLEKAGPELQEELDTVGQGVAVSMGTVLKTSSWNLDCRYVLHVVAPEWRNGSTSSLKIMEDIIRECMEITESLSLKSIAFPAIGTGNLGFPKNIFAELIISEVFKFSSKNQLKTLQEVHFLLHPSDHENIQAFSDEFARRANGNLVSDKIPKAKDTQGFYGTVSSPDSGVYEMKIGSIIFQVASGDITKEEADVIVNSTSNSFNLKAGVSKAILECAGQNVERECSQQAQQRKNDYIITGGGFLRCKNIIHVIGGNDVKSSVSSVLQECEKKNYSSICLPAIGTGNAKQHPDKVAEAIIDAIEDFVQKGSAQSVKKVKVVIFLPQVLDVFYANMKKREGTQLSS
Briefly: biochemical. In kind it is binding.

Assay [4] addresses T1, MacroD1. Further details: method as in PMID 18983849. The note with it: read-out: Kd for free ADPr, MacroD1; cited from earlier work.
In assay [5] the target is CHIKV macrodomain (Chikungunya virus, UniProt Q8JUX6, C1333S). In kind it is biochemical, Chikungunya (CHIKV) alphavirus.
Assay [6] deals with T3, SARS-CoV-2 Mac1 (Severe acute respiratory syndrome coronavirus 2, UniProt P0DTD1). The assay is classed as biochemical.
Assay [7] has as its target T4, TARG1 (Homo sapiens, UniProt Q9Y530).
T4 construct: "Uniprot: Q9Y530" res; His10 with TEV site (N, cleaved yes); made in house; host or cells: E. coli T7-express
T4 sequence (Q9Y530 3-152): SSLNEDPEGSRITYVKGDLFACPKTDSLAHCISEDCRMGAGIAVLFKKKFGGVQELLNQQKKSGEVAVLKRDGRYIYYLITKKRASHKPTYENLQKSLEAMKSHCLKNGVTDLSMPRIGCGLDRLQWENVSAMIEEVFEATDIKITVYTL
In kind it is biochemical. Particulars: read-out: IC50 TARG1.

The target of assay [8] is T5, MacroD2 (Homo sapiens, UniProt A1Z1Q3).
T5 sequence (A1Z1Q3 4-243): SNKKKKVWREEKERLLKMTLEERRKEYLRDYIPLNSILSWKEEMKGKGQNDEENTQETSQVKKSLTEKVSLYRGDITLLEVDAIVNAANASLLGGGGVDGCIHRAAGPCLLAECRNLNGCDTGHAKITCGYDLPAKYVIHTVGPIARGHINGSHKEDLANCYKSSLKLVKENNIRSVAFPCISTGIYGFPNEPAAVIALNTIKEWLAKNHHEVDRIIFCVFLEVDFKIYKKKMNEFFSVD
In kind it is biochemical. The note with it: read-out: IC50 MacroD2.

The target in assay [9] is T3, SARS-CoV-2 Mac1. Briefly: biochemical.
Assay [10] relates to MARylated Tb-PARP10cat. In kind it is biochemical, human.
Assay [11] concerns MARylated Tb-PARP10cat. In kind it is biochemical, human. The source holds these as a separate data set.
[12] abbreviates: read-out: IC50 HCoV-229e, wash setup, 2 h, 80 nM macrodomain, 6 nM immobilized Tb-PARP10cat.

For the molecule `Nc1ncnc2c1ncn2C1OC(COP(=O)(O)OP(=O)(O)OCC2OC(O)C(O)C2O)C(O)C1O` (centres unmarked) [ADPr, Adenosine 5′-diphosphoribose sodium salt], the IC50 in [1] was about 460 µM; in assay [2], 2 µM; in assay [3], 67 µM. Moreover, in assay [4], the Kd is 0.9 µM.

For the molecule `N#C[C@@]1(c2ccc3c(N)ncnn23)O[C@H](CO)[C@@H](O)[C@H]1O` [GS-441524], in assay [1] (setting [12]), the IC50 was over 667 µM. Besides, the “IC50 CHIKV” value in assay [5] is recorded as “slight activity”. Moreover, the “readout quenching in one-pot setup (PARP14 Mac2/3 off-target), in words” value (from here on “readout quenching in one-pot setup”) in [3] was “clear and concentration-dependent loss of signal”. In [6], the “inhibition of SARS-CoV-2 Mac1 in words” value is “slightly inhibits”.

Take `O=C(Nc1ccc(C(=O)NC2c3cccc(O)c3CC2C(=O)O)cc1)NC1CC1` (centres unmarked) [Z8539]: in [1] (setting [12]), the IC50 is over 667 µM. The “readout quenching in one-pot setup” value in assay [3] was “does not show a strong quenching effect”.

For `O=C(Nc1ccccc1)Nc1ccc(C(=O)NC2c3cccc(O)c3CC2C(=O)O)cc1` (centres unmarked) [Z8539_0023], the IC50 in assay [7] is over 667 µM; in assay [2] (read-out: IC50 MacroD1), over 667 µM; in assay [8], over 667 µM; in assay [9], 6 µM. Further, in assay [3], the “readout quenching in one-pot setup” value was “pronounced readout quenching”.

For the molecule `O=C(Nc1ccc(C(=O)NC2c3cccc(O)c3CC2C(=O)O)c(O)c1)NC1CC1` (centres unmarked) [Z8539_0072], the half-maximal inhibitory concentration (IC50) in [1] (setting [12]) was over 667 µM; in [9], 14 µM.

For the molecule `Oc1c(Cl)cc(Cl)c(Cl)c1Cc1c(O)c(Cl)cc(Cl)c1Cl` [hexachlorophene], in assay [6], the “inhibition of SARS-CoV-2 Mac1 in words” value was “limited efficacy”.

B1: MacroD1: recombinant human MacroD1, Uniprot Q9BQ69 res. 90-325 (protein, UniProt Q9BQ69 90-325, looked up, fragment)
chain: STSTDWKEAKSFLKGLSDKQREEHYFCKDFVRLKKIPTWKEMAKGVAVKVEEPRYKKDKQLNEKISLLRSDITKLEVDAIVNAANSSLLGGGGVDGCIHRAAGPLLTDECRTLQSCKTGKAKITGGYRLPAKYVIHTVGPIAYGEPSASQAAELRSCYLSSLDLLLEHRLRSVAFPCISTGVFGYPCEAAAEIVLATLREWLEQHKDKVDRLIICVFLEKDEDIYRSRLPHYFPVA
Consider B1, for which the “EC80 One-pot (1 h)” value in assay [10] was determined as 0.004 µM. For the same molecule, in [11], the “EC80 Wash (2 h)” value amounted to 0.003 µM.

B2: TARG1: recombinant human TARG1, Uniprot Q9Y530 res. S3-152 (protein, UniProt Q9Y530 3-152, looked up, fragment)
chain: SSLNEDPEGSRITYVKGDLFACPKTDSLAHCISEDCRMGAGIAVLFKKKFGGVQELLNQQKKSGEVAVLKRDGRYIYYLITKKRASHKPTYENLQKSLEAMKSHCLKNGVTDLSMPRIGCGLDRLQWENVSAMIEEVFEATDIKITVYTL
With B2, the “EC80 One-pot (1 h)” value in assay [10] was “∼2256 nM”. Also, the “EC80 Wash (2 h)” value in [11] is “∼ 830 nM”.

B3: MacroD2: recombinant human MacroD2, Uniprot A1Z1Q3 res. 4-243 (protein, UniProt A1Z1Q3 4-243, looked up, fragment)
chain: SNKKKKVWREEKERLLKMTLEERRKEYLRDYIPLNSILSWKEEMKGKGQNDEENTQETSQVKKSLTEKVSLYRGDITLLEVDAIVNAANASLLGGGGVDGCIHRAAGPCLLAECRNLNGCDTGHAKITCGYDLPAKYVIHTVGPIARGHINGSHKEDLANCYKSSLKLVKENNIRSVAFPCISTGIYGFPNEPAAVIALNTIKEWLAKNHHEVDRIIFCVFLEVDFKIYKKKMNEFFSVD
As for B3, the “EC80 One-pot (1 h)” value in assay [10] was 0.003 µM. Also, the “EC80 Wash (2 h)” value in assay [11] stood at 0.002 µM.

B4: HCoV-229e: recombinant HCoV-229E macrodomain, Uniprot P0C6X1 res. E1270-1437 (protein, UniProt P0C6X1 1270-1437, looked up, fragment)
chain: EKLNAFLVHDNVAFYQGDVDTVVNGVDFDFIVNAANENLAHGGGLAKALDVYTKGKLQRLSKEHIGLAGKVKVGTGVMVECDSLRIFNVVGPRKGKHERDLLIKAYNTINNEQGTPLTPILSCGIFGIKLETSLEVLLDVCNTKEVKVFVYTDTEVCKVKDFVSGLVN
modifications: Non-structural protein 3 macrodomain
With B4, the “EC80 One-pot (1 h)” value in assay [10] stood at 0.036 µM. For the same molecule, the “EC80 Wash (2 h)” value in assay [11] was determined as 0.015 µM.
